Results as given in ChEMBL document CHEMBL3217594, “Structureactivity relationships of methyl-lysine reader antagonists” (Medchemcomm, 2012).
pIC50: −log10 of the molar value. Active and inactive are the calls of the source. No cut-off for these calls is given here.

Experiments:
[1] = target: T1, MBT domain-containing protein 1 (Homo sapiens, UniProt Q05BQ5); test: Antagonist activity at MBTD1 (unknown origin) assessed as inhibition of MBTD1/biotinylated H4K20Me1 peptide interaction after 30 mins by AlphaScreen assay
T1 sequence (Q05BQ5 whole entry, the tested form may be a part): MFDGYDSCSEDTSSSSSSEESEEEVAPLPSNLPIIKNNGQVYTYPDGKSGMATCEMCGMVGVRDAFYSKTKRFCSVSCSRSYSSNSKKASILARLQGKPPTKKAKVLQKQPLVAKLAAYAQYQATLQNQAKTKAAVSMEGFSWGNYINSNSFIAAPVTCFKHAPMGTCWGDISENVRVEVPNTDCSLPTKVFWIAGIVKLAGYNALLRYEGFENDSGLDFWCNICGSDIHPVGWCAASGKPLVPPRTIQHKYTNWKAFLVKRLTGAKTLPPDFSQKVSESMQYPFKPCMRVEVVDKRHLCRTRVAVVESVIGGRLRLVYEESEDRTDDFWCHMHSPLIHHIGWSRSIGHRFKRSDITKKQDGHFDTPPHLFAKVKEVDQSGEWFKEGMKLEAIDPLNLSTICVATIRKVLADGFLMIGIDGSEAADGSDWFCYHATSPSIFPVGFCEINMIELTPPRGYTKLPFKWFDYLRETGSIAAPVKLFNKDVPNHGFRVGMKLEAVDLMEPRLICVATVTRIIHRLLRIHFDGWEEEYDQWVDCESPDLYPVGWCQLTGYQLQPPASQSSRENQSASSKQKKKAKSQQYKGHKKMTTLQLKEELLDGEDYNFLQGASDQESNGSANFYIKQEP

[2] = target: T2, Scm-like with four MBT domains protein 1 (Homo sapiens) (UniProt Q9UHJ3); test: Antagonist activity at SFMBT1 (unknown origin) assessed as inhibition of SFMBT1/biotinylated H3K9Me1 peptide interaction at 30 uM after 30 mins by AlphaScreen assay
T2 sequence (whole entry): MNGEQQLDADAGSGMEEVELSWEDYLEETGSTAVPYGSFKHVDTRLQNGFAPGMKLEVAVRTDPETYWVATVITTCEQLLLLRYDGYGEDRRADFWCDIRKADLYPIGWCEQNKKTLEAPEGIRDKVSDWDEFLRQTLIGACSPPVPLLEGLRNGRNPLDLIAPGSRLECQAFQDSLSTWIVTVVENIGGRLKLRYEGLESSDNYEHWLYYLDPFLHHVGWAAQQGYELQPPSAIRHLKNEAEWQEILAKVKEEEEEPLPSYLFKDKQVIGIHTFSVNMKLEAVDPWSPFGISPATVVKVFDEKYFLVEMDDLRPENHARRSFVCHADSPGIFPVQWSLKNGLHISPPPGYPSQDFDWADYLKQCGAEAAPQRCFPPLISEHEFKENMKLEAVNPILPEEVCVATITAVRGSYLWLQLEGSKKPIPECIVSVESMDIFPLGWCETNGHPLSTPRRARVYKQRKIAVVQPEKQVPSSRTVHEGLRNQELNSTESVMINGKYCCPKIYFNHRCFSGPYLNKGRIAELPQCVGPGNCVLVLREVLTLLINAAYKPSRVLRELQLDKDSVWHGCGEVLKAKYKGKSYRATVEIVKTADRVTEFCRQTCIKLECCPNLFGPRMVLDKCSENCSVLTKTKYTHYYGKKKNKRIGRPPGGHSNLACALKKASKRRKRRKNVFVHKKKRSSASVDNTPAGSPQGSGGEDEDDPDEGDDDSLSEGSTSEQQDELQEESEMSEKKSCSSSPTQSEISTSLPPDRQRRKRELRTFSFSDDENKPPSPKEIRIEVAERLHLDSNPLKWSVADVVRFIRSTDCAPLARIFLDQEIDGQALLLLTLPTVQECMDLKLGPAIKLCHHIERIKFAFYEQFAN

[3] = target: T3, Lethal(3)malignant brain tumor-like protein 4 (Homo sapiens) (UniProt Q8NA19); test: Antagonist activity at L3MBTL4 (unknown origin) assessed as inhibition of L3MBTL4/biotinylated H2AK36Me1 peptide interaction at 30 uM after 30 mins by AlphaScreen assay
T3 sequence (whole entry): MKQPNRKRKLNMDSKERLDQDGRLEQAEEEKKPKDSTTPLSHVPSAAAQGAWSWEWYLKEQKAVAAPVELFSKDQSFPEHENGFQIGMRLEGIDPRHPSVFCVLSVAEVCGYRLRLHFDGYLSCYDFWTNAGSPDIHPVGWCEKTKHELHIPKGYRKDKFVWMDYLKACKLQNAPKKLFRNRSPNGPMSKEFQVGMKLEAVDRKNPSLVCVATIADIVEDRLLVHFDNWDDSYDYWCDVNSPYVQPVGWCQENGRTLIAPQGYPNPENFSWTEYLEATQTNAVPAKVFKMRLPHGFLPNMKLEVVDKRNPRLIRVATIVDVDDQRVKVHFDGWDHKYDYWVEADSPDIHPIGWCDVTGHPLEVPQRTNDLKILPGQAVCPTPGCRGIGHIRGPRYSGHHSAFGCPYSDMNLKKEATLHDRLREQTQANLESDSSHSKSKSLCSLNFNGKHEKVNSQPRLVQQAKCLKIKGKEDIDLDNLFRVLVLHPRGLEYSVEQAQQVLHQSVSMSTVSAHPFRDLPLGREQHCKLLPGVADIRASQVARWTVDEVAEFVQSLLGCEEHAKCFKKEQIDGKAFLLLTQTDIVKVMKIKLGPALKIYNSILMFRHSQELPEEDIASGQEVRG

[4] = target: T4, Chromobox protein homolog 7 (Homo sapiens, UniProt O95931); test: Antagonist activity at Flag-tagged CBX7 (unknown origin) assessed as inhibition of CBX7/biotinylated H3K9Me3 peptide interaction after 30 mins by AlphaScreen assay
T4 sequence (O95931 whole entry): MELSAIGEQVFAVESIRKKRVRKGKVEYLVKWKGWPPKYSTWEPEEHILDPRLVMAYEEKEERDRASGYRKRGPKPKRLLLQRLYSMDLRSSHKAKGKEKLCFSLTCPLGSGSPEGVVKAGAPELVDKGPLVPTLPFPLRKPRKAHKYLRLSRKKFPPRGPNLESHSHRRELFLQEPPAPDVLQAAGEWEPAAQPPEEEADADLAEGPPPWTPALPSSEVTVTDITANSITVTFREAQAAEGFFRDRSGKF

[5] = target: T5, Scm-like with four MBT domains protein 1 (Homo sapiens, UniProt Q9UHJ3); test: Antagonist activity at SFMBT1 (unknown origin) assessed as inhibition of SFMBT1/biotinylated H3K9Me1 peptide interaction after 30 mins by AlphaScreen assay
T5 sequence (Q9UHJ3 whole entry): T2 sequence (whole entry)

[6] = target: T1, MBT domain-containing protein 1; test: Antagonist activity at MBTD1 (unknown origin) assessed as inhibition of MBTD1/biotinylated H4K20Me1 peptide interaction at 30 uM after 30 mins by AlphaScreen assay
[7] = target: T6, Lethal(3)malignant brain tumor-like protein 3 (Homo sapiens) (UniProt Q96JM7); test: Antagonist activity at His-tagged L3MBTL3 (unknown origin) assessed as inhibition of L3MBTL3/biotinylated H4K20Me2 peptide interaction at 30 uM after 30 mins by AlphaScreen assay
T6 sequence (whole entry): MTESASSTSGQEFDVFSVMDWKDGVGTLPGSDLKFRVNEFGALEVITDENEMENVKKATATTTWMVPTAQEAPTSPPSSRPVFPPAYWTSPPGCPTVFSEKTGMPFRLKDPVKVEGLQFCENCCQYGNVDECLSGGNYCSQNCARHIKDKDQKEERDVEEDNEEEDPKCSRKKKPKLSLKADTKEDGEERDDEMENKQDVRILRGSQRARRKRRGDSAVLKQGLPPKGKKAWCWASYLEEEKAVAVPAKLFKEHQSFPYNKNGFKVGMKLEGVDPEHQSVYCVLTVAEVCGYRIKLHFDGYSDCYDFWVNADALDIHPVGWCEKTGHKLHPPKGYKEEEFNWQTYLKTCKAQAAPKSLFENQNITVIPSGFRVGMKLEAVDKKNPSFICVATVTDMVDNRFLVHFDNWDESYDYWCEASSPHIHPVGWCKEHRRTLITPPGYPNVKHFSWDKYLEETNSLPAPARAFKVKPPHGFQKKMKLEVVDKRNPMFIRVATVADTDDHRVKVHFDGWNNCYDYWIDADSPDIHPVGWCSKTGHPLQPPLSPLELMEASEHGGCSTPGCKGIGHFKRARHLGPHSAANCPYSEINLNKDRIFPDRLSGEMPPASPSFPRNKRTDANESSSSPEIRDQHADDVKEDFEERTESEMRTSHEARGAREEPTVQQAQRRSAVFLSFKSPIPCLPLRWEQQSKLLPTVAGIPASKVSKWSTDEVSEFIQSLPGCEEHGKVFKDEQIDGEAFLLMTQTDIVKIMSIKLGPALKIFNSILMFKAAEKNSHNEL

| pIC50 [1] | inhibition [2] | pIC50 [4] | pIC50 [5] | inhibition [6] | SMILES | inhibition [3] | inhibition [7] [%] |
| --- | --- | --- | --- | --- | --- | --- | --- |
| 4.73 | inactive | < 4.52 | < 4.52 |  | Brc1cccc(CN2CCC(N3CCCC3)CC2)c1 | 10% |  |
| < 4.52 | inactive | < 4.52 | < 4.52 | 13% | O=C(c1cccc(Br)c1)N1CCC(N2CCCC2)C1 (configuration not stated) | inactive | 40 |
| < 4.52 | inactive | < 4.52 | < 4.52 | 1% | CN(C)C1CCN(C(=O)c2cccc(Br)c2)CC1 | inactive | 18 |
| 4.66 | inactive | < 4.52 | < 4.52 |  | O=S(=O)(c1cccc(Br)c1)N1CCC(N2CCCC2)CC1 | 6% |  |
| < 4.52 | inactive | < 4.52 | < 4.52 | 3% | C[N+]1(C2CCN(C(=O)c3cccc(Br)c3)CC2)CCCC1 | inactive | 13 |
| < 4.52 | inactive | < 4.52 | < 4.52 | 3% | CNC1CCN(C(=O)c2cccc(Br)c2)CC1 | inactive | 9 |
| 4.53 | inactive | < 4.52 | < 4.52 |  | O=C(c1cccc(Br)c1)N1CCC(N2CCCCC2)CC1 | inactive | 21 |
| < 4.52 | inactive | < 4.52 | < 4.52 | inactive | O=C(c1cccc(Br)c1)N1CCN(C2CCCC2)CC1 | inactive | 5 |
| < 4.52 | inactive | < 4.52 | < 4.52 | 4% | O=C(O)c1cccc(C(=O)N2CCC(N3CCCC3)CC2)c1 | 26% |  |
| < 4.52 | 12% | < 4.52 | < 4.52 | 44% | O=C(c1cccc(Br)c1)N1CCC(N2CCCC2)CC1 |  |  |
| < 4.52 | inactive | < 4.52 | < 4.52 | 20% | O=C(c1cccc(Br)c1)N1CCC(N2CCC2)CC1 | 4% |  |
| 5.05 | inactive | < 4.52 | < 4.52 |  | CC(c1cccc(Br)c1)N1CCC(N2CCCC2)CC1 (racemic) | 13% |  |
| < 4.52 | inactive | < 4.52 | < 4.52 | 16% | CC1CCCN1C1CCN(C(=O)c2cccc(Br)c2)CC1 (configuration not stated) | inactive | 25 |
| 5.04 | inactive | < 4.52 | < 4.52 |  | O=C(c1cccc(Br)c1)N1CCC(C2CCCN2)CC1 (configuration not stated) | inactive | 52 |
| < 4.52 | inactive | < 4.52 | < 4.52 | 32% | CN1CCCC1C1CCN(C(=O)c2cccc(Br)c2)CC1 (configuration not stated) | inactive |  |
